Measurements as given in patent publication US12258339B2, “Macrocyclic complexes of alpha-emitting radionuclides and their use in targeted radiotherapy of cancer” (Cornell University, priority 2018, dated 2025).

How the values were obtained:
[1] = Kinetic inertness of La^3+ and Lu^3+ complexes of macropa: transchelation challenge with EDTA/DTPA; type: physicochemical; conditions: in the presence of 1000 equiv of DTPA, pH 7.4, monitored 21 days by UV
Method: Kinetic Inertness of La^3+ and Lu^3+ Complexes of Macropa: Transchelation Challenge. A stock solution of ethylenediaminetetraacetic acid (EDTA, 100 mM) was made in MOPS buffer (prepared as described above) by adjusting the pH of the initial suspension to 6.6 using aqueous NMe4OH.
The preformed La^3+ and Lu^3+ complexes of macropa were challenged with EDTA.
The complex formed in situ between La^3+ and macropa was more rigorously challenged with excess DTPA. A solution containing 500 μM of complex, prepared using the LaCl3 and macropa stock solutions described above, was left to equilibrate for 5 min.
Before assessing its Ac-chelation properties, complex formation was evaluated in situ between macropa and cold La^3+ and Lu^3+ ions.

[2] = In vivo biodistribution of ^225Ac complexes of macropa and DOTA and of ^225Ac(NO3)3 in mice; parameters: species or system C57BL/6 mice
Method: In Vivo Biodistribution of ^225Ac Complexes of Macropa and DOTA. All experiments were approved by the Institutional Animal Care Committee (IACC) of the University of British Columbia and were performed in accordance with the Canadian Council on Animal Care Guidelines. A total of 9 female C57BL/6 mice (6-8 weeks old, 20-25 g) were used for the biodistribution study of each radiometal complex, n=3 for each time point.
Macropa (100 μL of a 1 mg/mL solution in NH4OAc) was diluted with 387 μL of NH4OAc (1 M, pH 7), and an aliquot (203 μL) of ^225Ac(NO3)3 (˜157 kBq) was then added; the pH of this solution was adjusted to 6.5-7 by the addition of 1 M NaOH (210 μL, trace metal grade). After 5 min at ambient temperature, the reaction solution was analyzed by TLC (0.4 M pH 4 sodium citrate as the eluent), which confirmed >95% radiochemical yield. The reaction was allowed to proceed overnight, and the radiochemical yield was again confirmed to be >95% the following morning. At this time, mice were anesthetized by 2% isoflurane, and approximately 100 μL (10-15 kBq) of the [^225Ac(macropa)]^+ complex were injected into the tail vein of each mouse. After injection, mice were allowed to recover and roam freely in their cages, and were euthanized by CO2 inhalation at 15 min, 1 h, or 5 h (n=3 at each time point) post-injection. Blood was collected by cardiac puncture and placed into an appropriate test tube for scintillation counting. Tissues collected included heart, liver, kidneys, lungs, small intestine, large intestine, brain, bladder, spleen, stomach, pancreas, bone, thyroid, tail, urine, and feces. Tissues were weighed and then counted with a calibrated gamma counter (Packard, Cobra II model 5002) using three energy windows: 60-120 keV (window A), 180-260 keV (window B), and 400-480 keV (window C). Counting was performed both immediately after sacrifice and after 7 days; counts were decay corrected from the time of injection and then converted to the percentage of injected dose (% ID) per gram of tissue (% ID/g). […]
The biodistribution studies of [^225Ac(DOTA)]^− and ^225Ac(NO3)3 were carried out as described above for [^225Ac(macropa)]^+, with the following modifications. [^225Ac(DOTA)^− was prepared by adding ^225Ac(NO3)3 (338 μL, 1.1 MBq) to a solution of DOTA (100 μg, 20 mg/mL in H2O) in NH4OAc (467 μL, 0.15 M, pH 7). The pH of the solution was adjusted to 7 using NH4OAc (150 μL, 1 M, pH 7) and the solution was heated at 85° C. for 45 min. RCY>99% was confirmed by TLC as described above. [^225Ac(DOTA)]^− was diluted with saline to a final concentration of 0.05 MBq/100 μL, and 100 μL were injected into each mouse. ^225Ac(NO3)3 (˜58 μL, 0.4 MBq) was diluted and injected in the same manner as [^225Ac(DOTA)]^−. One mouse that was to be euthanized at the 5 h time point in the [^225Ac(DOTA)]^− study died shortly after injection. In the same manner, one mouse that was to be euthanized at the 1 h time point in the ^225Ac(NO3)3 study died.
The in vivo stability [^225Ac(macropa)]^+ was examined by comparing its biodistribution to those of ^225Ac(NO3)3 and [^225Ac(DOTA)]^−. C57BL/6 mice were injected via tail vein with 10-50 kBq of each radiometal complex and were sacrificed after 15 min, 1 h, or 5 h. The amount of ^225Ac retained in each organ was quantified by gamma counting and reported as the percent of injected dose per gram of tissue (% ID/g). The results of these studies are compiled in Tables 1-3. Inadequate stability of an ^225Ac complex leading to the loss of radioisotope in vivo is manifested by the accumulation of ^225Ac in the liver, spleen, and bone of mice.^[11,12,32] […] The biodistribution profile of [^225Ac(macropa)]^+ (FIG. 3B) differs markedly from that of ^225Ac(NO3)3. […] Its biodistribution profile was similar to that of [^225Ac(DOTA)]^− (FIG. 3C), which has been previously shown to retain ^225Ac in vivo.^[7]

[3] = 1 h after i.v. injection, energy window C (400-480 keV)
[4] = 5 h after i.v. injection, energy window A (60-120 keV)

Structure (SMILES): O=C([O-])c1cccc(CN2CCOCCOCCN(Cc3cccc(C(=O)O)n3)CCOCCOCC2)n1.[La+3] [La^3+ complex]
- time complex remained intact [1]: up to 21 days

Structure (SMILES): O=C([O-])CN1CCN(CC(=O)[O-])CCN(CC(=O)[O-])CCN(CC(=O)[O-])CC1.[225Ac+3] [[^225Ac(DOTA)]^−, reference compound]
- Organ distribution: brain [2, 3]: 0.0380 % ID/g
- Organ distribution: blood [2, 4]: 0.0140 % ID/g
- Organ distribution: lungs [2, 4]: 0.0390 % ID/g

Structure (SMILES): O=[N+]([O-])[O-].O=[N+]([O-])[O-].O=[N+]([O-])[O-].[225Ac] [^225Ac(NO3)3, reference compound]
- Organ distribution: feces ([2]; 15 min after i.v. injection, energy window A (60-120 keV)): 0.240 % ID/g
- Organ distribution: feces ([2]; 1 h after i.v. injection, energy window B (180-260 keV)): 0.3300 % ID/g
- Organ distribution: thyroids [2, 3]: 0.0000 % ID/g
- Organ distribution: brain ([2]; 5 h after i.v. injection, energy window B (180-260 keV)): 0.0290 % ID/g
- Organ distribution: brain ([2]; 5 h after i.v. injection, energy window C (400-480 keV)): 0.0430 % ID/g
- blood clearance and excretion (in words) ([2]; i.v. injection, up to 5 h): slow blood clearance and excretion
- organ accumulation (in words) ([2]; i.v. injection, up to 5 h): large accumulation in the liver and spleen
